Tested on: colon cancer cell line DLD-1
Assay: Cell viability assay (CellTiter-Glo) and combination effect analysis of leptomycin B plus co-agent
Type: cell-based, Human
Details: combination with leptomycin B, DLD-1 cells, average CI over fraction affected 0.2 to 0.9; for Combination Index, LMB First: 24 hours of LMB, then drug added and incubated for 48 hours; for Combination Index, Co-Agent First: drug alone for 24 hours followed by addition of LMB for 48 hours; for Combination Index, Simultaneous: simultaneous exposure to LMB and drug for 72 hours, constant ratio of IC50s
Protocol: The efficacy of a combination of leptomycin B and specific chemotherapeutic co-agents was determined. The additive, synergistic, or antagonistic effect of the combination of leptomycin B and a co-agent was calculated for each administration regimen using Calcusyn software (Biosoft, Cambridge, United Kingdom). This software calculates a combination index using the following algorithm: CI=[D]1/[Dx]1+[D]2/[Dx]2 where • CI is the combination index; • [D]1 and [D]2 are the concentrations of the two agents being tested (i.e., LMB and the co-agent) that, in combination provide a response of x % in the assay; and • [Dx]1 and [Dx]2 are the concentrations of the two agents that, when used alone, produce a response of x % in the assay.
A CI value of one means the combined effect of the two agents is additive. A CI value of less than one means that the two agents act synergistically. A CI value of greater than one means that the two agents act antagonistically.
The area under the curve where the fraction affected of cells (FA) ranged from 0.2 to 0.9 was calculated, to generate average CI values as shown in Table 1 for colon cancer cell line DLD-1.
Human colon adenocarcinoma cell line, DLD-1, was obtained from American Type Culture Collection (Manassas, Va.). […] Leptomycin B was produced by fermentation of a high producing isolate from Streptomyces sp. […] LMB is also available from commercial sources, such as Sigma-Aldrich. Other anti-cancer agents were either purchased commercially (e.g., from Sigma Chemical Co. (St. Louis, Mo.) or from Sequoia Research Products (Oxford, UK)).
Cells were seeded in duplicate in 96-well microtiter plates at a density of 4,000 cells per well and allowed to attach overnight. Cells were treated with LMB and the corresponding cytotoxic drug at varying concentrations, ranging from 0.5 picomolar (“pM”) to 50 micromolar (“μM”), for 3 days. Cell viability was determined using the CellTiter-Glo luminescent cell viability assay (Promega). For the drug combination assay, cells were seeded in duplicate in 96-well plates (4,000 cells/well). […] Based on the IC50 values of each individual drug, combined drug treatment was designed at constant ratios of two drugs, i.e., equivalent to the ratio of their IC50. Three treatment schedules were used: The first schedule used simultaneous exposure to both LMB and drug for 72 hours. In the second schedule, the cells were exposed to 24 hours of LMB. The drug was then added to the cells and incubated for 48 hours. In the third schedule, cells were exposed to the drug alone for 24 hours followed by addition of LMB for 48 hours. Cell viability was determined by the CellTiter-Glo luminescent cell viability assay. Synergism, additivity, or antagonism was determined by median effect analysis using the combination index (CI) calculated using Calcusyn (Biosoft, Cambridge, UK), as described above.

SMILES | Combination Index, LMB First | Combination Index, Co-Agent First | Combination Index, Simultaneous
C=CCNC1=C2C[C@@H](C)C[C@H](OC)[C@H](O)[C@@H](C)/C=C(\C)[C@H](OC(N)=O)[C@@H](OC)/C=C\C=C(/C)C(=O)NC(=CC1=O)C2=O [17-AAG, 17-allylamino-17-demethoxygeldanamycin] | 1.13 ± 0.05 | 0.91 ± 0.09 | 1.15 ± 0.06
CCC1(c2ccc(N)cc2)CCC(=O)NC1=O (stereo not drawn) [Aminoglutethimide, aminoglutethimide] | 0.82 ± 0.05 | 1.02 ± 0.18 | 0.89 ± 0.07
CC(O)(CS(=O)(=O)c1ccc(F)cc1)C(=O)Nc1ccc(C#N)c(C(F)(F)F)c1 (stereo not drawn) [Bicalutamide, bicalutamide] | 1.48 ± 0.32 | 1.05 ± 0.02 | 1.02 ± 0.01
CC(=O)O[C@@]12CO[C@@H]1C[C@H](O)[C@@]1(C)C(=O)[C@H](O)C3=C(C)[C@@H](OC(=O)[C@H](O)[C@@H](NC(=O)OC(C)(C)C)c4ccccc4)C[C@@](O)([C@@H](OC(=O)c4ccccc4)[C@H]21)C3(C)C [Docetaxel, docetaxel] | 1.06 ± 0.04 | 0.95 ± 0.07 | 1.19 ± 0.14
COc1cccc2c1C(=O)c1c(O)c3c(c(O)c1C2=O)C[C@@](O)(C(=O)CO)C[C@@H]3O[C@H]1C[C@H](N)[C@H](O)[C@H](C)O1 [Doxorubicin, doxorubicin] | 0.96 ± 0.05 | 0.89 ± 0.01 | 0.84 ± 0.12
C/C1=C/C[C@@H](/C(C)=C/c2csc(C)n2)OC(=O)C[C@H](O)C(C)(C)C(=O)[C@H](C)[C@@H](O)[C@@H](C)CCC1 [Epo D, epothilone D] | 1.05 ± 0.03 | 0.92 ± 0.05 | 1.06 ± 0.10
Nc1ccn([C@@H]2O[C@H](CO)[C@@H](O)C2(F)F)c(=O)n1 [Gemcitabine, gemcitabine] | 1.18 ± 0.05 | 0.71 ± 0.31 | 0.97 ± 0.25
CCc1c2c(nc3ccc(OC(=O)N4CCC(N5CCCCC5)CC4)cc13)-c1cc3c(c(=O)n1C2)COC(=O)[C@]3(O)CC [Irinotecan, irinotecan] | 0.77 ± 0.05 | 0.50 ± 0.001 | 0.92 ± 0.08
CC[C@H](C)[C@@H](COC(Cc1ccccc1)C(=O)N[C@@H](CCS(C)(=O)=O)C(=O)OC(C)C)NC[C@@H](N)CS (stereo partly drawn) [L-744832] | 0.82 ± 0.05 | 0.86 ± 0.11 | 0.84 ± 0.09
O=C(CCCCCCC(=O)Nc1ccccc1)NO [SAHA, suberoylanilide hydroxamic acid] | 0.91 ± 0.04 | 1.03 ± 0.11 | 0.88 ± 0.04

— US20050203174A1, “Combination therapies using leptomycin B” (Kosan Biosciences, Inc., priority 2004, published 2005)
